Experimental data as given in patent US8541377B2, “Optimized dengue virus entry inhibitory peptide (DN81)” (Florida Gulf Coast University, priority 2007, dated 2013).
Residues, ends and D or L forms follow the SMILES beside them.

Test system: LLCMK-2 cells
Conditions: confluent LLCMK-2 monolayers; concentration ranges that showed viral inhibition; vs medium only controls, p>0.05; FIG. 4
Description: The cytotoxicity of the chemistries was measured by monitoring mitochondrial reductase activity using the TACS™ MTT cell proliferation assay (R&D Systems, Inc., Minneapolis, Minn.) according to the manufacturer's instructions. Dilutions of chemistries in serum-free DMEM were added to confluent monolayers of LLCMK-2 cells in 96-well plates for 1 h at 37° C., similar to the focus forming inhibition assays, and subsequently incubated at 37° C. with 5% (v/v) CO2 for 24 h. Absorbance at 560 nm was measured using a Tecan GeniosPro plate reader (Tecan US, Durham, N.C.).

Which “toxicity (mitochondrial reductase activity of target cells)” value does the source give for `CSCC[C@H](NC(=O)[C@H](Cc1c[nH]c2ccccc12)NC(=O)[C@@H](N)CCCNC(=N)N)C(=O)N[C@H](C(=O)N[C@@H](Cc1c[nH]c2ccccc12)C(=O)N[C@@H](CCCNC(=N)N)C(=O)N[C@@H](Cc1c[nH]cn1)C(=O)N[C@@H](Cc1c[nH]c2ccccc12)C(=O)N[C@@H](Cc1ccccc1)C(=O)N[C@@H](Cc1c[nH]cn1)C(=O)N[C@@H](CCCNC(=N)N)C(=O)N[C@@H](CC(C)C)C(=O)N[C@@H](CCCNC(=N)N)C(=O)N[C@@H](CC(C)C)C(=O)N1CCC[C@H]1C(=O)N[C@@H](Cc1ccc(O)cc1)C(=O)N[C@@H](CC(N)=O)C(=O)N1CCC[C@H]1C(=O)NCC(=O)N[C@@H](CCCCN)C(=O)N[C@@H](CC(N)=O)C(=O)N[C@@H](CCCCN)C(=O)N[C@@H](CCC(N)=O)C(=O)N[C@@H](CC(N)=O)C(=O)N[C@@H](CCC(N)=O)C(=O)N[C@@H](CCC(N)=O)C(=O)N[C@@H](Cc1c[nH]c2ccccc12)C(=O)N1CCC[C@H]1C(=O)O)C(C)C` [DN81] (H-RWMVWRHWFHRLRLPYNPGKNKQNQQWP-OH) here?
Its value is “not due to toxicity”.
